Our source for the TGI and GI50 values is PubChem BioAssay (NCI).

Each structure is given as a SMILES string. Where “and” joins values, the source holds several entries; their conditions need not be identical. Equal values may be shown once.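 48-hour exposure; five concentrations; linearly interpolated endpoints. At the GI50, growth is halved. The concentration for full growth arrest is given as TGI.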

Some test systems named below: CCRF-CEM leukemia; DU-145 prostate; HCC-2998 colon; HCT-15 colon; KM12 colon; MDA-MB-231 breast; MOLT-4 leukemia; NCI-H226 lung; NCI-H460 lung; OVCAR-4 ovarian.
What all share (test): growth of human tumour cells (NCI), 48 h

In the case of `O=C(C#Cc1ccccc1)C1=Cc2ccccc2OC1`, the TGI was found to be 528 nM in the assay with CCRF-CEM leukemia; 20.7 µM in the assay on DU-145 prostate; 19.6 µM with HCC-2998 colon; 6.38 µM in the assay with HCT-15 colon; 9.67 µM in the assay with KM12 colon; 10.5 µM with MDA-MB-231 breast. The TGI in the assay with MOLT-4 leukemia was greater than 100 µM; in the assay on NCI-H226 lung, 8.36 µM; with NCI-H460 lung it was 23700 nM; with OVCAR-4 ovarian it was 8.9 µM.
Take `Cc1c(N)nc(C(CC(N)=O)NCC(N)C(N)=O)nc1C(=O)NC(C(=O)NC(C)C(O)C(C)C(=O)NC(C(=O)NCCc1nc(-c2nc(C(=O)NCCCNC(C)c3ccccc3)cs2)cs1)C(C)O)C(OC1OC(CO)C(O)C(O)C1OC1OC(CO)C(O)C(OC(N)=O)C1O)c1cnc[nH]1` (configuration not stated): the GI50 with CCRF-CEM leukemia is 7500 nM; in the assay on DU-145 prostate, 10500 nM; in the assay with HCT-15 colon, 26800 nM; in the assay with KM12 colon, 44100 nM; in the assay with MDA-MB-231 breast it was greater than 100000 nM; with MOLT-4 leukemia, 3750 nM. Besides, the GI50 was 1590 nM in the assay on NCI-H226 lung, 391 nM in the assay on NCI-H460 lung and 81500 nM with OVCAR-4 ovarian. The TGI is 50000 nM and > 100000 nM in the assay with CCRF-CEM leukemia; 39.2 µM and 55 µM in the assay with DU-145 prostate; 50 µM and > 100 µM with HCC-2998 colon; 50 µM and > 100 µM in the assay with HCT-15 colon; 50 µM and > 100 µM in the assay on KM12 colon; greater than 100 µM with MDA-MB-231 breast. Moreover, the TGI was 25.9 µM and > 100 µM in the assay with MOLT-4 leukemia; 2.97 µM and 24.8 µM in the assay with NCI-H226 lung; 33.7 µM and > 100 µM in the assay on OVCAR-4 ovarian.
In the case of `Nc1nc2cc(CC[C@H]3C[C@@H](n4ccc5c(N)ncnc54)[C@H](O)[C@@H]3O)ccc2cc1Br`, the GI50 in the assay on CCRF-CEM leukemia is 12300 nM; in the assay on DU-145 prostate it was 13100 nM; with HCC-2998 colon, 11200 nM; in the assay on HCT-15 colon, 11300 nM; in the assay on KM12 colon, 11000 nM; with MDA-MB-231 breast it was 11100 nM. Further, the GI50 in the assay with MOLT-4 leukemia is 2430 nM; in the assay with NCI-H226 lung, 2710 nM; in the assay on NCI-H460 lung it was 10900 nM; in the assay on OVCAR-4 ovarian it was 2060 nM. Moreover, the TGI is greater than 100000 nM in the assay with CCRF-CEM leukemia; 27 µM in the assay with DU-145 prostate; 24.4 µM in the assay on HCC-2998 colon; 25.6 µM in the assay on HCT-15 colon; 25.9 µM in the assay with KM12 colon; 24.4 µM in the assay with MDA-MB-231 breast. Further, the TGI in the assay on MOLT-4 leukemia amounted to 64.3 µM; in the assay with NCI-H226 lung it was 26.8 µM; in the assay with NCI-H460 lung, 26500 nM; in the assay on OVCAR-4 ovarian, 19.1 µM.
Take `CO[C@H]1C[C@](C)(O)Cc2cc3c(c(O)c21)C(=O)c1c(O)cc2c(c1C3=O)O[C@@H]1O[C@@]2(C)[C@H](O)[C@@H](N(C)C)[C@@H]1O`: the GI50 with CCRF-CEM leukemia was 180 nM; in the assay with HCC-2998 colon, 1480 nM; in the assay with KM12 colon it was 1390 nM; in the assay on MOLT-4 leukemia, 29.6 nM and 27.1 nM; in the assay with NCI-H460 lung it was 35 nM; in the assay with OVCAR-4 ovarian it was 1870 nM. The TGI in the assay on CCRF-CEM leukemia is 1220 nM and 4210 nM; in the assay with DU-145 prostate it was 7.14 µM; in the assay on HCC-2998 colon, 3.04 µM and 11.9 µM; with HCT-15 colon, 3.4 µM and 10.9 µM; in the assay on KM12 colon, 3.18 µM and 11.4 µM; in the assay with MDA-MB-231 breast, 8 µM. The TGI in the assay with MOLT-4 leukemia was 0.186 µM and 0.664 µM; in the assay with NCI-H226 lung, 3.26 µM and 5.15 µM; in the assay on NCI-H460 lung, 1470 nM and 2100 nM; with OVCAR-4 ovarian, 3.46 µM and 12.6 µM.
For the compound `COC(=O)c1c2c(c(C)[n+]([O-])c1C)C(=O)C=C(NCc1cccc(Cl)c1)C2=O`, the GI50 with CCRF-CEM leukemia is 444 nM; with DU-145 prostate, 821 nM; in the assay with HCC-2998 colon it was 329 nM; with HCT-15 colon, 205 nM; in the assay with KM12 colon, 200 nM; with MDA-MB-231 breast, 261 nM. The GI50 with MOLT-4 leukemia was 505 nM; with NCI-H226 lung, 1410 nM; with NCI-H460 lung, 381 nM; in the assay on OVCAR-4 ovarian it was 210 nM. For the same compound, the TGI in the assay with DU-145 prostate was determined as 2.18 µM; in the assay with HCC-2998 colon, 1.42 µM; in the assay with HCT-15 colon it was 1.52 µM; with KM12 colon, 1.69 µM; in the assay with MDA-MB-231 breast, 2.77 µM; with MOLT-4 leukemia, 1.89 µM. In addition, the results for the TGI in the assay on NCI-H226 lung, in the assay on NCI-H460 lung and in the assay on OVCAR-4 ovarian were 3.55 µM, 1600 nM and 0.938 µM, respectively.
Regarding `COc1cc(C(=O)O[C@H](C(=O)NCCN(C)CCNC(=O)[C@@H](OC(=O)c2cc(OC)cc3c(C)cccc23)[C@]2(C)CO2)[C@]2(C)CO2)c2cccc(C)c2c1`, the GI50 is less than 10 nM in the assay with CCRF-CEM leukemia; less than 32.8 nM in the assay on DU-145 prostate; less than 24.1 nM in the assay on HCC-2998 colon; 10.9 nM with HCT-15 colon; 54.9 nM with KM12 colon; 264 nM in the assay on MDA-MB-231 breast. The GI50 is less than 10 nM with MOLT-4 leukemia, 182 nM in the assay with NCI-H226 lung, less than 10 nM in the assay with NCI-H460 lung and 56 nM in the assay on OVCAR-4 ovarian. In addition, the TGI in the assay with DU-145 prostate turned out to be 0.162 µM; with HCC-2998 colon it was 0.771 µM; with HCT-15 colon, 1.02 µM; in the assay with KM12 colon, 0.465 µM; in the assay with MDA-MB-231 breast, 1.58 µM; in the assay on MOLT-4 leukemia, 0.153 µM. Moreover, the TGI in the assay on NCI-H226 lung was 0.721 µM; in the assay with NCI-H460 lung, 1610 nM; in the assay on OVCAR-4 ovarian, 0.679 µM.
Consider `C[C@]12CC[C@H]3[C@@H](CC4SC(N)=NC45C/C(=N/NC(N)=O)CC[C@]35C)[C@@H]1CCC2=O` (some centres not stated), for which the GI50 with CCRF-CEM leukemia is 280 nM; in the assay with DU-145 prostate, 1750 nM; in the assay on HCC-2998 colon, 1740 nM; in the assay with HCT-15 colon it was 1460 nM; with KM12 colon, 2010 nM; in the assay with MDA-MB-231 breast, 1700 nM. The GI50 in the assay with MOLT-4 leukemia was 2640 nM; in the assay on NCI-H226 lung it was 2090 nM; with NCI-H460 lung, 1920 nM; with OVCAR-4 ovarian, 1740 nM. Further, the TGI with CCRF-CEM leukemia turned out to be 1620 nM; in the assay with DU-145 prostate, 3.41 µM; in the assay with HCC-2998 colon it was 3.28 µM; with HCT-15 colon, 2.86 µM; in the assay with KM12 colon it was 4.02 µM; in the assay on MDA-MB-231 breast it was 3.43 µM. Moreover, the TGI in the assay with MOLT-4 leukemia came to 7.02 µM; with NCI-H226 lung, 4.91 µM; in the assay on NCI-H460 lung it was 3610 nM; with OVCAR-4 ovarian, 3.17 µM.
